Target: T1, human PPARγ (Homo sapiens, UniProt P37231)
T1 construct: 1.6 kb of fragment of the prepared plasmid pGEMT-hPPARg2 including human PPARγ gene; expressed in transfected cells; host or cells: CV-1 cells, transient transfection with pCI-hPPARg2, pCI-hRXRa and the reporter pGL3-PPRE3-TK
T1 sequence (P37231 1-505): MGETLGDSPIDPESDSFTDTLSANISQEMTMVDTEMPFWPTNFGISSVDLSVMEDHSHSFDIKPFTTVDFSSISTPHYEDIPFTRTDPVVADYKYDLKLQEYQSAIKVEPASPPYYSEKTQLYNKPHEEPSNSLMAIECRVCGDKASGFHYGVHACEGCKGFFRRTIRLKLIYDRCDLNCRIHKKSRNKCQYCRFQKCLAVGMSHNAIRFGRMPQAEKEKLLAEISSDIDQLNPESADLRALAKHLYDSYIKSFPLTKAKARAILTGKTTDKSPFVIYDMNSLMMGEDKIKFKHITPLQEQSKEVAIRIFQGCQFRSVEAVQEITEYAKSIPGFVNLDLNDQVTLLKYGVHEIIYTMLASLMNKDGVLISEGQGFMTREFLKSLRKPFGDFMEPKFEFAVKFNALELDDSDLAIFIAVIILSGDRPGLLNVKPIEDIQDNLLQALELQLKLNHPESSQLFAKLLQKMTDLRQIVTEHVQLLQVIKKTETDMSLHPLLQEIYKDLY
T1 sequence (P19793 1-462 partner): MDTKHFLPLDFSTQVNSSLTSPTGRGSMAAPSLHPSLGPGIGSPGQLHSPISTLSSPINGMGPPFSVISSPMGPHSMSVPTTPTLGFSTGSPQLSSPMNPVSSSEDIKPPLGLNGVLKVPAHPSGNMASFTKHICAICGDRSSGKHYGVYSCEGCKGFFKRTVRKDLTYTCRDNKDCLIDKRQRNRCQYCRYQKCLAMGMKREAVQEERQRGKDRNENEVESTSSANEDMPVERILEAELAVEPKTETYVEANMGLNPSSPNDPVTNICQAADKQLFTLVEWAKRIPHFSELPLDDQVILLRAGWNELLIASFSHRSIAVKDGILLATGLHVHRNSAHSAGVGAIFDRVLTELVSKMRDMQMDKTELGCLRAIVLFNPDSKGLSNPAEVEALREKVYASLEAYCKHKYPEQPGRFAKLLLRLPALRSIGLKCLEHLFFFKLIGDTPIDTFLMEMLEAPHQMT
Assay: Human PPARγ antagonist assay (luciferase reporter in transfected CV-1 cells)
Format: cell-based
Conditions: CV-1 cells expressing human PPARγ and RXRα with reporter plasmid; pioglitazone 1 μM as stimulant; 24 hours; read-out: Human PPARγ antagonist activities, Inhibition IC50
Experimental: CV-1 cells (96 well plate), where human PPARγ and RXRα has expressed in the transient transfection of reporter plasmid (see reference 5a) were washed once with PBS (100 μL/well), and then supplemented with 100 μL/well […], as well as pioglitazone (not limited to pioglitazone shown as an example, but may be any PPARγ agonist) at a final concentration of 1 μM as a stimulant were added, and incubated in a 5% CO2 incubator at 37° C. for 24 hours. After removing the medium, the CV-1 cells were washed once with PBS (100 μL/well), and supplemented with 60 μL/well of 1× Passive Lysis Buffer (manufactured by Promega Corporation). The CV-1 cells were incubated at room temperature for 30 minutes, stirred, and then by using Dual-Luciferase Reporter Assay System (manufactured by Promega Corporation), luciferase activities of firefly and renilla were measured using 1420 ARVO Multilabel Counter (manufactured by Wallac Oy). Also, the same experiments as that described above were respectively carried out for the cases where only the above-mentioned stimulants (100 nM, 1 μM, 10 μM) were used, where only the above-mentioned test compounds were used, or where neither was used (nonsupplemented), and luciferase activities of firefly and renilla were measured. Values corrected by dividing the firefly luciferase activities by the renilla luciferase activities were calculated as specific activities and used for evaluations.
Human PPARγ2 antagonist activities of the test compounds were evaluated by using a percentage (inhibition) where the specific activity in case only […] was added is regarded as 0% and the specific activity in case the test compound and the stimulant were not added is regarded as 100%. Moreover, the concentration of the test compound indicating the inhibition rate of 50% was calculated as the IC50 value. Also, human PPARγ2 agonist activities of the test compounds were evaluated by using a percentage (activity) where the specific activity when nonsupplemented is regarded as 0% and the specific activity in case only 10 μM stimulant was added is regarded as 100%, from the specific activity in case only the test compound is used.
CV-1 cells were cultured in DMEM medium (manufactured by Invitrogen Corporation) including 10% fetal bovine serum (manufactured by Dainippon Pharmaceutical Co., Ltd.) in 225T-Flask (manufactured by Corning Costar). The cells were detached by 0.5 g/L trypsin-0.2 g/L EDTA (ethylene diamine tetra-acetic acid) (manufactured by Invitrogen Corporation), and then suspended in the DMEM medium including 10% fetal bovine serum to a cell concentration of 2×10^5 cells/mL. Thereafter, the cells were seeded into 96 well plate at 2×10^4 cells/0.1 mL/well, incubated in the 5% CO2 incubator at 37° C. overnight, and then the plasmids prepared by the above-mentioned reference 1a, reference 3a, and reference 4a were transfected into cells by using a lipofectamine reagent (manufactured by Invitrogen Corporation) according to the attached manual.
Namely, after CV-1 cells were cultured overnight, the cells were washed with PBS (100 μL/well). Thereafter the cells were incubated for 5 hours at 37° C./5% CO2 in the MEM medium (manufactured by Invitrogen Corporation) including 430 ng/mL of human PPARγ expression plasmid (pCI-hPPARg2) prepared by the reference 1a, 430 ng/mL of human RXRα expression plasmid (pCI-hRXRa) prepared by the reference 3a, and 140 ng/mL of the reporter plasmid (pGL3-PPRE3-TK) prepared by the reference 4a, 10 ng/mL of phRL-TK vector (manufactured by Promega Corporation) and 2 μL/mL of lipofectamine.

SMILES | IC50 [nM]
COc1cc(Cn2c3ccccc3c3c(O[C@@H](C)C(=O)O)cccc32)ccc1OCc1nc(-c2ccccc2)oc1C [Example 39, sodium (S)-2-{9-[3-methoxy-4-((5-methyl-2-phenyl-oxazole-4-yl)methoxy)-benzyl]-9H-carbazole-4-yloxy}propionate] | 617
COc1cc(Cn2c3ccccc3c3c(O[C@H](C(=O)O)C(C)C)cccc32)ccc1OCc1nc(-c2ccccc2)oc1C [Example 40, sodium (S)-2-{9-[3-methoxy-4-((5-methyl-2-phenyl-oxazole-4-yl)methoxy)-benzyl]-9H-carbazole-4-yloxy}-3-methyl-butyrate] | 308
CCC[C@H](Oc1cccc2c1c1ccccc1n2Cc1ccc(OCc2nc(-c3ccccc3)oc2C)c(OC)c1)C(=O)O [Example 41, sodium (S)-2-{9-[3-methoxy-4-((5-methyl-2-phenyl-oxazole-4-yl)methoxy)-benzyl]-9H-carbazole-4-yloxy}valerate] | 220
CC[C@@H](Oc1cccc2c1c1ccccc1n2Cc1ccc(OCc2nc(-c3ccccc3)oc2C)c(OC)c1)C(=O)O [Example 42, sodium (R)-2-{9-[3-methoxy-4-((5-methyl-2-phenyl-oxazole-4-yl)methoxy)-benzyl]-9H-carbazole-4-yloxy}butyrate] | 484
COc1cc(Cn2c3ccccc3c3c(O[C@@H](C(=O)O)C(C)C)cccc32)ccc1OCc1nc(-c2ccccc2)oc1C [Example 44, sodium (R)-2-{9-[3-methoxy-4-((5-methyl-2-phenyl-oxazole-4-yl)methoxy)-benzyl]-9H-carbazole-4-yloxy}-3-methyl-butyrate] | 462
COc1cc(Cn2c3ccccc3c3c(OCc4ccc(C(=O)O)cc4)cccc32)ccc1OCc1nc(-c2ccccc2)oc1C [Example 46, sodium 4-((9-(4-((5-methyl-2-phenyloxazole-4-yl)methoxy)-3-methoxybenzyl)-9H-carbazole-5-yloxy)methyl)benzoate] | 992
COc1cc(Cn2c3ccccc3c3c(Oc4ccccc4C(=O)O)cccc32)ccc1OCc1nc(-c2ccccc2)oc1C [Example 47, sodium 2-{9-[3-methoxy-4-((5-methyl-2-phenyloxazole-4-yl)methoxy)-benzyl]-9H-carbazole-4-yloxy}benzoate] | 30
COc1cc(Cn2c3ccccc3c3c(Oc4cccc(C(=O)O)c4)cccc32)ccc1OCc1nc(-c2ccccc2)oc1C [Example 48, sodium 3-{9-[3-methoxy-4-((5-methyl-2-phenyloxazole-4-yl)methoxy)-benzyl]-9H-carbazole-4-yloxy}benzoate] | 2490
COc1cc(Cn2c3ccccc3c3c(Oc4ccc(C(=O)O)cc4)cccc32)ccc1OCc1nc(-c2ccccc2)oc1C [Example 49, sodium 4-{9-[3-methoxy-4-((5-methyl-2-phenyloxazole-4-yl)methoxy)-benzyl]-9H-carbazole-4-yloxy}benzoate] | 1050
